Source: patent US20240270762A1, “PENICILLIN-BINDING PROTEIN INHIBITORS” (priority 2021, published 2024)
Converted amounts (≈) assume the structure as drawn.

Experiments:
P. aeruginosa ATCC 35151 = assay: microbe, parasite or virus in culture; type: cell-based; settings: Pseudomonas aeruginosa, ATCC35151, read-out: Minimum inhibitory concentration, P. aeruginosa ATCC 35151
N. gonorrhoeae WHO L = assay: Liquid broth MIC in Fastidious broth; settings: Neisseria gonorrhoeae, read-out: Minimum Inhibitory Concentration (MIC), N. gonorrhoeae WHO L
A. baumannii 1258916 = assay: microbe, parasite or virus in culture; type: cell-based, Acinetobacter baumannii; settings: Acinetobacter baumannii, 1258916, read-out: MIC, A. baumannii 1258916
A. baumannii CDC-0045 = assay: microbe, parasite or virus in culture; type: cell-based; settings: Acinetobacter baumannii, CDC0045, read-out: MIC, A. baumannii CDC-0045
P. aeruginosa CDC-0095 = assay: microbe, parasite or virus in culture; type: cell-based; settings: Pseudomonas aeruginosa, CDC0095, read-out: Minimum inhibitory concentration, P. aeruginosa CDC-0095
[1] = biological target: T1, PBP3 from Acinetobacter baumannii (ATCC 19606) (Acinetobacter baumannii, UniProt A0ABX6CK25); assay: Bocillin-FL fluorescence polarization competition binding, A. baumannii PBP3; settings: fluorescence polarization competition binding assay using Bocillin-FL; read-out: A. baumannii PBP3 Potency
T1 sequence (A0ABX6CK25 64-610): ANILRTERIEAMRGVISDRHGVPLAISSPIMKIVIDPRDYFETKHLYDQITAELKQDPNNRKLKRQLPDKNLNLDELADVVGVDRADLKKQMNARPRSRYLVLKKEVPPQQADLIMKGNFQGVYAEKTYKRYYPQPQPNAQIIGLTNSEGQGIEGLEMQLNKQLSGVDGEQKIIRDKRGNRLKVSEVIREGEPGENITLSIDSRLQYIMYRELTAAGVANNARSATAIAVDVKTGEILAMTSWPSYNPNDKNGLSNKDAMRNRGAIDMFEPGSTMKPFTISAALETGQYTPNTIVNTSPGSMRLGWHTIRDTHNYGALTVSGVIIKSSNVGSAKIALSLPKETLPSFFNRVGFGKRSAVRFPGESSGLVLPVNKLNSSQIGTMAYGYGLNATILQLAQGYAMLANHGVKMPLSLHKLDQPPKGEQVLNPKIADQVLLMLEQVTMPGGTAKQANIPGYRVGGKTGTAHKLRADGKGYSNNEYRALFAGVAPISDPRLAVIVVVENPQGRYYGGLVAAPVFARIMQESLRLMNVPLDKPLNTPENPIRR
Summary of the method: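 Purified PBPs pre-incubated with inhibitor (E. coli PBP3 1.5 μM, 30 min; P. aeruginosa PBP3 0.75 μM, A. baumannii PBP1a 1 μM and PBP3 0.2 μM, 15 min), then Bocillin-FL 0.1 μM (0.05 μM for PBP1a) added; FP read up to 60 min. EC50 = concentration halving bound Bocillin-FL.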

N. gonorrhoeae WHO Q = assay: Liquid broth MIC in Fastidious broth; settings: Neisseria gonorrhoeae, read-out: Minimum Inhibitory Concentration (MIC), N. gonorrhoeae WHO Q
N. gonorrhoeae MS11 = assay: Liquid broth MIC in Fastidious broth; settings: Neisseria gonorrhoeae, MS11, read-out: Minimum Inhibitory Concentration (MIC), N. gonorrhoeae MS11
N. gonorrhoeae CDC-0197 = assay: Liquid broth MIC in Fastidious broth; settings: Neisseria gonorrhoeae, CDC0197, read-out: Minimum Inhibitory Concentration (MIC), N. gonorrhoeae CDC-0197
[2] = tested on: B. thailandensis ATCC 700388; assay: microbe, parasite or virus in culture; type: cell-based; settings: Burkholderia thailandensis, ATCC700388, read-out: Minimum inhibitory concentration (MIC), B. thailandensis ATCC 700388

| Structure (SMILES) | MIC (P. aeruginosa ATCC 35151) | MIC (N. gonorrhoeae WHO L) | MIC (A. baumannii 1258916) | MIC (A. baumannii CDC-0045) | MIC (P. aeruginosa CDC-0095) | IC50 [1] | MIC (N. gonorrhoeae WHO Q) | MIC (N. gonorrhoeae MS11) | MIC (N. gonorrhoeae CDC-0197) | MIC [2] |
| --- | --- | --- | --- | --- | --- | --- | --- | --- | --- | --- |
| O=C(NCCN1CCN(C(=O)NC(C(=O)N[C@H]2Cc3ccc(F)c(C(=O)O)c3OB2O)c2cc(F)c(O)c(O)c2Cl)C(=O)C1=O)c1cccnc1 (stereo partly drawn) [Example 217, (3R)-3-(2-(2-chloro-5-fluoro-3,4-dihydroxyphenyl)-2-(4-(2-(nicotinamido)ethyl)-2,3-dioxopiperazine-1-carboxamido)acetamido)-7-fluoro-2-hydroxy-3,4-dihydro-2H-benzo[e][1,2]oxaborinine-8-carboxylic acid] | < 1 µg/mL | > 64 µg/mL | 2 to 4 µg/mL (≈ 2.74 to 5.47 µM) | < 1 µg/mL | 2 to 4 µg/mL (≈ 2.74 to 5.47 µM) | < 10 µM | > 64 µg/mL | 16 to 32 µg/mL (≈ 21.9 to 43.8 µM) | 16 to 32 µg/mL (≈ 21.9 to 43.8 µM) | 2 to 4 µg/mL (≈ 2.74 to 5.47 µM) |
| O=C(NCCN1CCN(C(=O)NC(C(=O)N[C@H]2Cc3ccc(F)c(C(=O)O)c3OB2O)c2cc(F)c(O)c(O)c2Cl)C(=O)C1=O)c1nccs1 (stereo partly drawn) [Example 218, (3R)-3-(2-(2-chloro-5-fluoro-3,4-dihydroxyphenyl)-2-(2,3-dioxo-4-(2-(thiazole-2-carboxamido)ethyl)piperazine-1-carboxamido)acetamido)-7-fluoro-2-hydroxy-3,4-dihydro-2H-benzo[e][1,2]oxaborinine-8-carboxylic acid] | < 1 µg/mL | > 64 µg/mL | 2 to 4 µg/mL (≈ 2.71 to 5.43 µM) | 8 to 16 µg/mL (≈ 10.9 to 21.7 µM) | 8 to 16 µg/mL (≈ 10.9 to 21.7 µM) | < 10 µM | > 64 µg/mL | 16 to 32 µg/mL (≈ 21.7 to 43.4 µM) | 16 to 32 µg/mL (≈ 21.7 to 43.4 µM) | 2 to 4 µg/mL (≈ 2.71 to 5.43 µM) |
| O=C(NCCN1CCN(C(=O)NC(C(=O)N[C@H]2Cc3ccc(F)c(C(=O)O)c3OB2O)c2cc(F)c(O)c(O)c2Cl)C(=O)C1=O)Nc1ccc(O)cc1 (stereo partly drawn) [Example 219, (3R)-3-(2-(2-chloro-5-fluoro-3,4-dihydroxyphenyl)-2-(4-(2-(3-(4-hydroxyphenyl)ureido)ethyl)-2,3-dioxopiperazine-1-carboxamido)acetamido)-7-fluoro-2-hydroxy-3,4-dihydro-2H-benzo[e][1,2]oxaborinine-8-carboxylic acid] | < 1 µg/mL | > 64 µg/mL | 2 to 4 µg/mL (≈ 2.63 to 5.26 µM) | 8 to 16 µg/mL (≈ 10.5 to 21 µM) | 8 to 16 µg/mL (≈ 10.5 to 21 µM) | < 10 µM | > 64 µg/mL | 16 to 32 µg/mL (≈ 21 to 42.1 µM) | > 64 µg/mL | 8 to 16 µg/mL (≈ 10.5 to 21 µM) |
| O=C(NCCN1CCN(C(=O)NC(C(=O)N[C@H]2Cc3ccc(F)c(C(=O)O)c3OB2O)c2cc(F)c(O)c(O)c2Cl)C(=O)C1=O)Nc1cccc(O)c1 (stereo partly drawn) [Example 220, (3R)-3-(2-(2-chloro-5-fluoro-3,4-dihydroxyphenyl)-2-(4-(2-(3-(3-hydroxyphenyl)ureido)ethyl)-2,3-dioxopiperazine-1-carboxamido)acetamido)-7-fluoro-2-hydroxy-3,4-dihydro-2H-benzo[e][1,2]oxaborinine-8-carboxylic acid] | < 1 µg/mL | > 64 µg/mL | 2 to 4 µg/mL (≈ 2.63 to 5.26 µM) | 2 to 4 µg/mL (≈ 2.63 to 5.26 µM) | 8 to 16 µg/mL (≈ 10.5 to 21 µM) | < 10 µM | > 64 µg/mL | 16 to 32 µg/mL (≈ 21 to 42.1 µM) | > 64 µg/mL | 8 to 16 µg/mL (≈ 10.5 to 21 µM) |
| O=C(NCCN1CCN(C(=O)N[C@@H](C(=O)N[C@H]2Cc3ccc(F)c(C(=O)O)c3OB2O)c2cc(F)c(O)c(O)c2Cl)C(=O)C1=O)Nc1ccncc1 [Example 221, (R)-3-((R)-2-(2-chloro-5-fluoro-3,4-dihydroxyphenyl)-2-(2,3-dioxo-4-(2-(3-(pyridin-4-yl)ureido)ethyl)piperazine-1-carboxamido)acetamido)-7-fluoro-2-hydroxy-3,4-dihydro-2H-benzo[e][1,2]oxaborinine-8-carboxylic acid] | < 1 µg/mL | > 64 µg/mL | 2 to 4 µg/mL (≈ 2.68 to 5.36 µM) | < 1 µg/mL | 8 to 16 µg/mL (≈ 10.7 to 21.5 µM) | < 10 µM | > 64 µg/mL | 16 to 32 µg/mL (≈ 21.5 to 42.9 µM) | > 64 µg/mL | 2 to 4 µg/mL (≈ 2.68 to 5.36 µM) |
| O=C(NCCN1CCN(C(=O)N[C@@H](C(=O)N[C@H]2Cc3ccc(F)c(C(=O)O)c3OB2O)c2cc(F)c(O)c(O)c2Cl)C(=O)C1=O)Nc1cccnc1 [Example 222, (R)-3-((R)-2-(2-chloro-5-fluoro-3,4-dihydroxyphenyl)-2-(2,3-dioxo-4-(2-(3-(pyridin-3-yl)ureido)ethyl)piperazine-1-carboxamido)acetamido)-7-fluoro-2-hydroxy-3,4-dihydro-2H-benzo[e][1,2]oxaborinine-8-carboxylic acid] | < 1 µg/mL | > 64 µg/mL | 2 to 4 µg/mL (≈ 2.68 to 5.36 µM) | < 1 µg/mL | 8 to 16 µg/mL (≈ 10.7 to 21.5 µM) | < 10 µM | > 64 µg/mL | 16 to 32 µg/mL (≈ 21.5 to 42.9 µM) | > 64 µg/mL | 2 to 4 µg/mL (≈ 2.68 to 5.36 µM) |
| CN(CCN1CCN(C(=O)NC(C(=O)N[C@H]2Cc3ccc(F)c(C(=O)O)c3OB2O)c2cc(F)c(O)c(O)c2Cl)C(=O)C1=O)S(=O)(=O)c1ccc(C(N)=O)cc1 (stereo partly drawn) [Example 223, (3R)-3-(2-(4-(2-((4-carbamoyl-N-methylphenyl)sulfonamido)ethyl)-2,3-dioxopiperazine-1-carboxamido)-2-(2-chloro-5-fluoro-3,4-dihydroxyphenyl)acetamido)-7-fluoro-2-hydroxy-3,4-dihydro-2H-benzo[e][1,2]oxaborinine-8-carboxylic acid] | < 1 µg/mL | > 64 µg/mL | 2 to 4 µg/mL (≈ 2.43 to 4.86 µM) | < 1 µg/mL | 2 to 4 µg/mL (≈ 2.43 to 4.86 µM) | < 10 µM | > 64 µg/mL | 16 to 32 µg/mL (≈ 19.4 to 38.9 µM) | > 64 µg/mL | 2 to 4 µg/mL (≈ 2.43 to 4.86 µM) |
| CN(CCN1CCN(C(=O)NC(C(=O)N[C@H]2Cc3ccc(F)c(C(=O)O)c3OB2O)c2cc(F)c(O)c(O)c2Cl)C(=O)C1=O)S(=O)(=O)c1cccc(C(N)=O)c1 (stereo partly drawn) [Example 224, (3R)-3-(2-(4-(2-((3-carbamoyl-N-methylphenyl)sulfonamido)ethyl)-2,3-dioxopiperazine-1-carboxamido)-2-(2-chloro-5-fluoro-3,4-dihydroxyphenyl)acetamido)-7-fluoro-2-hydroxy-3,4-dihydro-2H-benzo[e][1,2]oxaborinine-8-carboxylic acid] | < 1 µg/mL | > 64 µg/mL | 2 to 4 µg/mL (≈ 2.43 to 4.86 µM) | < 1 µg/mL | 2 to 4 µg/mL (≈ 2.43 to 4.86 µM) | < 10 µM | > 64 µg/mL | > 64 µg/mL | > 64 µg/mL | 2 to 4 µg/mL (≈ 2.43 to 4.86 µM) |
| CN(CCN1CCN(C(=O)N[C@@H](C(=O)N[C@H]2Cc3ccc(F)c(C(=O)O)c3OB2O)c2cc(F)c(O)c(O)c2Cl)C(=O)C1=O)Cc1cccc(C(N)=O)c1 [Example 225, (R)-3-((R)-2-(4-(2-((3-carbamoylbenzyl)(methyl)amino)ethyl)-2,3-dioxopiperazine-1-carboxamido)-2-(2-chloro-5-fluoro-3,4-dihydroxyphenyl)acetamido)-7-fluoro-2-hydroxy-3,4-dihydro-2H-benzo[e][1,2]oxaborinine-8-carboxylic acid] | < 1 µg/mL | > 64 µg/mL | < 1 µg/mL | < 1 µg/mL | 2 to 4 µg/mL (≈ 2.59 to 5.18 µM) | < 10 µM | > 64 µg/mL | 16 to 32 µg/mL (≈ 20.7 to 41.4 µM) | 16 to 32 µg/mL (≈ 20.7 to 41.4 µM) | < 1 µg/mL |
| CN(CCN1CCN(C(=O)N[C@@H](C(=O)N[C@H]2Cc3ccc(F)c(C(=O)O)c3OB2O)c2cc(F)c(O)c(O)c2Cl)C(=O)C1=O)Cc1ccc(C(N)=O)cc1 [Example 226, (R)-3-((R)-2-(4-(2-((4-carbamoylbenzyl)(methyl)amino)ethyl)-2,3-dioxopiperazine-1-carboxamido)-2-(2-chloro-5-fluoro-3,4-dihydroxyphenyl)acetamido)-7-fluoro-2-hydroxy-3,4-dihydro-2H-benzo[e][1,2]oxaborinine-8-carboxylic acid] | < 1 µg/mL | > 64 µg/mL | < 1 µg/mL | < 1 µg/mL | 2 to 4 µg/mL (≈ 2.59 to 5.18 µM) | < 10 µM | > 64 µg/mL | 16 to 32 µg/mL (≈ 20.7 to 41.4 µM) | > 64 µg/mL | < 1 µg/mL |
